Measurements from PubChem BioAssay (NCI).
Several values for one entry are separate records, joined by “and”; a condition that tells them apart may be missing. Equal values may be shown once.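 Following 48 hours of exposure in 96-well plates, responses at five concentrations were used to interpolate endpoints linearly. GI50 = concentration required for 50% inhibition of growth. The concentration for full growth arrest is given as TGI.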

Key:
Assay in all cases: DTP human tumour cell line panel, 48 h
UACC-257 melanoma = tested on: UACC-257 melanoma
HOP-18 NSCLC = tested on: HOP-18 NSCLC
786-0 renal = tested on: 786-0 renal
SNB-19 CNS = tested on: SNB-19 CNS
HOP-92 NSCLC = tested on: HOP-92 NSCLC
SK-MEL-5 melanoma = tested on: SK-MEL-5 melanoma
M19-MEL melanoma = tested on: M19-MEL melanoma
UACC-62 melanoma = tested on: UACC-62 melanoma
K-562 leukemia = tested on: K-562 leukemia
HL-60(TB) leukemia = tested on: HL-60(TB) leukemia

Row | SMILES | TGI (UACC-257 melanoma) | TGI (HOP-18 NSCLC) | TGI (786-0 renal) | TGI (SNB-19 CNS) | TGI (HOP-92 NSCLC) | TGI (SK-MEL-5 melanoma) | TGI (M19-MEL melanoma) | TGI (UACC-62 melanoma) | TGI (K-562 leukemia) | TGI (HL-60(TB) leukemia) | GI50 (UACC-257 melanoma) | GI50 (HOP-18 NSCLC) | GI50 (786-0 renal) | GI50 (SNB-19 CNS) | GI50 (HOP-92 NSCLC) | GI50 (SK-MEL-5 melanoma) | GI50 (HL-60(TB) leukemia) | GI50 (UACC-62 melanoma) | GI50 (K-562 leukemia)
1 | CCOC(=O)c1cc(=O)n(C)c(=O)n1C | > 100 µM | > 100 µM | > 100 µM | > 100 µM | > 100 µM | > 100 µM | > 100 µM | > 100 µM | > 100 µM |  |  |  |  |  |  |  |  |  | 
2 | N#Cc1c2ccccc2c(Cc2ccc3c(c2)OCCOCCOCCOCCOCCO3)c2ccccc12 | 22.5 µM | 21.8 µM | 25.4 µM | 24.5 µM | 12.2 µM | 17.5 µM |  | 19.8 µM | > 100 µM |  |  |  |  |  |  |  |  |  | 
3 | Brc1ccccc2cc(-c3ccccc3)nc1-2 | 32 µM | 13.9 µM | 10.8 µM | 40.7 µM | 19.8 µM | 36.2 µM |  | 23.7 µM | > 61.2 µM | 35.8 µM |  |  |  |  |  |  |  |  | 
4 | CCOC(=O)C1=C(OC(OCC)C([Se]c2ccccc2)C(C)C)CCC1 (configuration not stated) | 75.4 µM | 41.3 µM | 20.6 µM | > 100 µM | 51.1 µM | 28.8 µM | 34.9 µM | 33.6 µM | > 100 µM | 11.2 µM |  |  |  |  |  |  |  |  | 
5 | C/C=C/C(=O)Oc1cccc2cccnc12 | 40.9 µM | > 100 µM | > 100 µM | > 100 µM | 57.9 µM | 51 µM | 38.6 µM | > 39.5 µM | > 100 µM | > 33.8 µM |  |  |  |  |  |  |  |  | 
6 | CC(=O)[CH-]C(=O)c1ccccc1.CC(=O)[CH-]C(=O)c1ccccc1.Cl.[O-]c1ccnc2ccccc12.[O-]c1ccnc2ccccc12.[Ti+4] | > 100 µM | > 100 µM | > 100 µM | > 100 µM | > 100 µM | > 100 µM |  | > 100 µM | > 100 µM | > 100 µM | > 100 µM | > 100 µM | > 100 µM | > 100 µM | > 100 µM | > 100 µM | > 100 µM | > 100 µM | > 100 µM
7 | COC(=O)C1=CC2C(=O)OC1C1C(=O)NC(=O)C21 (configuration not stated) | > 100 µM | > 100 µM | > 100 µM | > 100 µM | > 100 µM | > 100 µM | > 100 µM | > 100 µM | > 100 µM | > 100 µM |  |  |  |  |  |  |  |  | 
8 | COc1cccc2c1C(=O)c1c(O)c3c(c(O)c1C2=O)C[C@@](O)(C(=O)CO)CC3OC1CC(N)C(OC2CCCCO2)C(C)O1 (some centres not stated) | 0.455 µM and 3.42 µM | 1.06 µM |  | 2.54 µM and 3.06 µM | 0.537 µM | 0.179 µM and 1.08 µM |  |  | 6.58 µM |  | 0.129 µM |  | 0.0131 µM | 0.033 µM |  | 0.0291 µM | < 0.001 µM | 0.0205 µM | 0.0247 µM
9 | CCOC(=O)C1=C(C)NC(=O)NC1c1ccc(OC)cc1OC (configuration not stated) | > 100 µM | > 100 µM | > 100 µM | > 100 µM | > 100 µM | > 100 µM | > 100 µM | > 100 µM | > 100 µM | > 100 µM |  |  |  |  |  |  |  |  | 
10 | CC1(C)C(=O)OC(n2cc(F)c(=O)[nH]c2=O)C1=O (configuration not stated) | > 100 µM | > 100 µM | > 100 µM | > 100 µM | 98.6 µM |  | > 100 µM | > 100 µM | > 100 µM | > 100 µM |  |  |  |  |  |  |  |  | 
11 | c1ccc(C2=NOC3C4CCC(C4)C23)cc1 (configuration not stated) | > 100 µM | > 100 µM | > 100 µM | > 100 µM | > 100 µM | > 100 µM | > 100 µM | > 100 µM | > 100 µM | > 100 µM |  |  |  |  |  |  |  |  | 
12 | O=C(NC1CC1)c1c(O)[nH]c(=S)[nH]c1=O | > 100 µM | > 100 µM | > 100 µM | > 100 µM | > 100 µM | > 100 µM | > 100 µM | > 100 µM | > 100 µM | > 100 µM |  |  |  |  |  |  |  |  | 
13 | Cn1[nH]cc2ccc3nc4ccccc4c(=O)c3c21 | > 74 µM | > 100 µM | > 100 µM | > 100 µM | > 83 µM | 35.1 µM | 46.8 µM | 26.6 µM | > 100 µM | 90.8 µM |  |  |  |  |  |  |  |  | 
14 | COc1ccc(CN2C(=O)[C@@H]3Cc4c(OC)c(C)c(OC)c(OC)c4[C@H](/C2=C\c2cc(OC)c(OC)c(C)c2OC)N3C(=O)OC(C)C)cc1 | > 100 µM | > 100 µM | > 100 µM | > 100 µM | > 100 µM | > 100 µM | > 100 µM | > 100 µM | > 100 µM | > 100 µM |  |  |  |  |  |  |  |  | 
15 | Cc1ccc2c(c1)-c1c3c(nn1C)-c1ccccc1SC3O2 (configuration not stated) | > 100 µM | > 100 µM | > 100 µM |  | > 100 µM |  | > 100 µM |  | > 100 µM | > 100 µM |  |  |  |  |  |  |  |  | 
16 | O=C(/C=C/c1ccc(Cl)c(Cl)c1)c1ccccc1Cl | 27.7 µM | 25.3 µM | 10.8 µM | 25.1 µM | 31.7 µM | 26.7 µM | 17.2 µM | 25.5 µM | 19.4 µM | 16.7 µM |  |  |  |  |  |  |  |  | 
17 | C[P+]1(Cc2ccccc2)CCCC1 | > 100 µM | > 100 µM | > 100 µM | > 100 µM |  | > 100 µM | > 100 µM | > 100 µM | > 100 µM | > 100 µM |  |  |  |  |  |  |  |  | 
